What was measured:
Experiment in all cases: relative viability (nuclei count vs DMSO), 5 days (fraction); higher = more cells survive
Seliciclib + Trametinib = compound: CC[C@H](CO)Nc1nc(NCc2ccccc2)c2ncn(C(C)C)c2n1 [Seliciclib] + CC(=O)Nc1cccc(-n2c(=O)n(C3CC3)c(=O)c3c(Nc4ccc(I)cc4F)n(C)c(=O)c(C)c32)c1 [Trametinib] (partner 0.02 µM)
Procedure, shortened: (§1)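 Lung cancer cell lines in 1536-well plates were dosed by pin tool the day after seeding, either with one drug alone or with a fixed anchor-drug dose plus five library-drug doses (not always all listed) in √10 steps. After 5 days, cells were fixed and their nuclei stained in one step (final 0.05% Triton X-100, 1% formaldehyde, 1 ug/ml Hoechst), then counted on 4× images. Relative viability is the nuclei count in treated wells divided by that in vehicle wells. Values are medians of duplicate plates.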

Seliciclib + OSI-027 = compound: CC[C@H](CO)Nc1nc(NCc2ccccc2)c2ncn(C(C)C)c2n1 [Seliciclib] + COc1cccc2cc(-c3nc([C@H]4CC[C@H](C(=O)O)CC4)n4ncnc(N)c34)[nH]c12 [OSI-027] (partner 0.5 µM)
Procedure, shortened: as §1

Seliciclib + Lapatinib = compound: CC[C@H](CO)Nc1nc(NCc2ccccc2)c2ncn(C(C)C)c2n1 [Seliciclib] + CS(=O)(=O)CCNCc1ccc(-c2ccc3ncnc(Nc4ccc(OCc5cccc(F)c5)c(Cl)c4)c3c2)o1 [Lapatinib] (partner 2 µM)
Procedure, shortened: as §1

Seliciclib + Linsitinib = compound: CC[C@H](CO)Nc1nc(NCc2ccccc2)c2ncn(C(C)C)c2n1 [Seliciclib] + C[C@]1(O)C[C@@H](c2nc(-c3ccc4ccc(-c5ccccc5)nc4c3)c3c(N)nccn32)C1 [Linsitinib] (partner 1 µM)
Procedure, shortened: as §1

Row | Cell Line | relative viability (Seliciclib + Trametinib; first compound 0.08 µM) | relative viability (Seliciclib + Trametinib; first compound 0.253 µM) | relative viability (Seliciclib + Trametinib; first compound 0.8 µM) | relative viability (Seliciclib + Trametinib; first compound 2.53 µM) | relative viability (Seliciclib + Trametinib; first compound 8 µM) | relative viability (Seliciclib + OSI-027; first compound 0.08 µM) | relative viability (Seliciclib + OSI-027; first compound 0.253 µM) | relative viability (Seliciclib + OSI-027; first compound 0.8 µM) | relative viability (Seliciclib + OSI-027; first compound 2.53 µM) | relative viability (Seliciclib + OSI-027; first compound 8 µM) | relative viability (Seliciclib + Lapatinib; first compound 0.08 µM) | relative viability (Seliciclib + Lapatinib; first compound 0.253 µM) | relative viability (Seliciclib + Lapatinib; first compound 0.8 µM) | relative viability (Seliciclib + Lapatinib; first compound 2.53 µM) | relative viability (Seliciclib + Lapatinib; first compound 8 µM) | relative viability (Seliciclib + Linsitinib; first compound 0.08 µM) | relative viability (Seliciclib + Linsitinib; first compound 0.253 µM) | relative viability (Seliciclib + Linsitinib; first compound 0.8 µM) | relative viability (Seliciclib + Linsitinib; first compound 2.53 µM) | relative viability (Seliciclib + Linsitinib; first compound 8 µM)
1 | NCI-H2405 | 0.631 | 0.44 | 0.664 | 0.509 | 0.591 | 0.616 | 0.669 | 0.689 | 0.291 | 0.555 | 1.11 | 0.851 | 1.05 | 0.919 | 0.902 | 0.978 | 0.962 | 0.863 | 0.941 | 0.793
2 | NCI-H3122 | 0.225 | 0.136 | 0.234 | 0.211 | 0.221 | 0.979 | 0.53 | 0.769 | 0.744 | 0.778 | 0.938 | 1.08 | 0.91 | 1.04 | 0.949 | 0.966 | 1.03 | 0.987 | 1.05 | 0.94
3 | PC-3 [JPC-3] | 0.754 | 0.861 | 0.721 | 0.577 | 0.528 | 0.727 | 0.761 | 0.716 | 0.65 | 0.672 | 0.455 | 0.52 | 0.418 | 0.421 | 0.445 | 0.954 | 0.994 | 1 | 0.915 | 0.893
4 | PC-14 | 0.788 | 0.529 | 0.719 | 0.721 | 0.532 | 0.844 | 0.736 | 0.749 | 0.494 | 0.709 | 0.306 | 0.262 | 0.315 | 0.309 | 0.263 | 0.922 | 0.921 | 0.936 | 0.994 | 0.845
5 | RERF-LC-KJ | 0.872 | 0.748 | 0.807 | 0.824 | 0.744 | 0.58 | 0.582 | 0.555 | 0.407 | 0.508 | 0.852 | 0.783 | 0.913 | 0.928 | 0.788 | 0.869 | 0.814 | 0.855 | 0.909 | 0.883
6 | SK-LU-1 | 0.548 | 0.426 | 0.54 | 0.601 | 0.415 | 0.38 | 0.378 | 0.433 | 0.239 | 0.233 | 0.847 | 0.971 | 0.812 | 0.775 | 0.666 | 0.973 | 0.868 | 1.32 | 1.09 | 0.687
7 | SK-MES-1 | 0.478 | 0.482 | 0.55 | 0.602 | 0.504 | 0.63 | 0.655 | 0.593 | 0.462 | 0.45 | 0.476 | 0.397 | 0.404 | 0.489 | 0.446 | 1.02 | 0.995 | 1.04 | 1.05 | 0.981
8 | SW 1573 | 0.561 | 0.48 | 0.566 | 0.57 | 0.341 | 0.606 | 0.491 | 0.728 | 0.598 | 0.466 | 1.09 | 1.06 | 1.02 | 1.1 | 0.869 | 0.768 | 0.792 | 0.904 | 0.743 | 0.668
9 | UMC-11 | 0.726 | 0.593 | 0.877 | 0.657 | 0.581 | 0.537 | 0.503 | 0.48 | 0.153 | 0.422 | 1.02 | 0.981 | 1.09 | 0.96 | 0.824 | 1.02 | 0.872 | 1.01 | 1.04 | 0.851

Reference: the supplement of paper PMC10307832
